Tests used:
[1] = test system: MOOVA (Monochoria vaginalis); test: Flooded paddy, preemergence weed control; format: in vivo, Presl.; conditions: rated 3-4 weeks after treatment, 0-9 rating scale
In short: (§1)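 Seeds or propagating organs were sown in the top 0.5 cm of silt loam soil, flooded, and the water kept 1.5 to 3 cm above the soil surface throughout. Plants were grown in the greenhouse and rated visually on a 0-9 scale against a control.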

[2] = test system: ZEAMX (Corn, Field); test: Postemergence herbicidal evaluation; format: in vivo, Zea mays, L.
In short: (§2)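 Seedlings grown about two weeks in flats, sprayed, then kept under standard greenhouse care. Rated visually 4–5 weeks after treatment on a 0–9 scale (stand, vigour, malformation, size, chlorosis, overall appearance) relative to untreated control; repeat tests averaged.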

[3] = test system: ABUTH (Abutilon theophrasti); test: Preemergence herbicidal evaluation; format: in vivo, Medic.; conditions: preemergence, rated 4-5 weeks after treatment
[4] = test system: SETVI (Setaria viridis); test: Postemergence herbicidal evaluation; format: in vivo, (L.) Beau
In short: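 ~2-wk seedlings; spray 0.0040–1.000 kg/ha in 50/50 acetone/water + 0.5% TWEEN 20, 40 psi nozzle. Greenhouse hold; visual 0–9 rating vs control at 4–5 wk; multiple tests averaged.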

[5] = test system: ECHCG (Echinochloa crus-galli); test: Postemergence herbicidal evaluation; format: in vivo, (L.) Beau
In short: as §2

[6] = test system: ORYSAT (Rice, Tebonnet); test: Preemergence herbicidal evaluation; format: in vivo, Oryza sativa, (L.) Tebonnet; conditions: preemergence, rated 4-5 weeks after treatment
[7] = test system: CYPSE (Cyperus serotinus); test: Flooded paddy, preemergence weed control; format: in vivo, Rottb.; conditions: rated 3-4 weeks after treatment, 0-9 rating scale
In short: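 Seeds or propagules were planted 0.5 cm deep in silt loam and flooded to 1.5–3 cm. Compounds in 50/50 v/v aqueous/acetone were pipetted into the flood water at about 0.0080 to 0.1250 kg/ha. After 3–4 weeks in the greenhouse, effect was rated visually on a 0–9 scale versus untreated control.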

[8] = test system: TRZAWR (Wheat, Winter, cv Riband); test: Postemergence herbicidal evaluation; format: in vivo, Triticum aestivum
In short: as §2

[9] = test system: ECHORC (Echinochloa oryzoides); test: Flooded paddy, preemergence weed control; format: in vivo, Echinochloa oryzoides (Ard.) Fritsch.; conditions: rated 3-4 weeks after treatment, 0-9 rating scale
In short: as §1

[10] = test system: ECHCG (Echinochloa crus-galli); test: Preemergence herbicidal evaluation; format: in vivo, (L.) Beau; conditions: preemergence, rated 4-5 weeks after treatment
In short: (§3)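 Scores (0–9) reflect visual comparison with control plants for stand, vigor, malformation, size and chlorosis. Seeds in potting soil received a post-planting spray of compound in aqueous acetone and grew in a greenhouse until assessment 4–5 weeks later.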

[11] = test system: SETVI (Setaria viridis); test: Preemergence herbicidal evaluation; format: in vivo, (L.) Beau; conditions: preemergence, rated 4-5 weeks after treatment
In short: as §3

[12] = test system: GLXMAW (Soybean, Williams); test: Postemergence herbicidal evaluation; format: in vivo, Glycine max, (L.) Merr. cv Williams
In short: as §2

[13] = test system: IPOHE (Ipomoea hederacea); test: Postemergence herbicidal evaluation; format: in vivo, (L.) Jacq.
In short: as §2

[14] = test system: GALAP (Galium aparine); test: Preemergence herbicidal evaluation; format: in vivo; conditions: preemergence, rated 4-5 weeks after treatment
In short: as §3

[15] = test system: ORYSAT (Rice, Tebonnet); test: Postemergence herbicidal evaluation; format: in vivo, Oryza sativa, (L.) Tebonnet
In short: as §2

[16] = test system: AMBEL (Ambrosia artemisifolia); test: Preemergence herbicidal evaluation; format: in vivo, L.; conditions: preemergence, rated 4-5 weeks after treatment
In short: as §3

[17] = test system: CHEAL (Chenopodium album); test: Preemergence herbicidal evaluation; format: in vivo, L.; conditions: preemergence, rated 4-5 weeks after treatment
In short: as §3

[18] = test system: CASOB (Cassia obtusifolia); test: Preemergence herbicidal evaluation; format: in vivo, L.; conditions: preemergence, rated 4-5 weeks after treatment
In short: as §3

[19] = test system: TRZAWR (Wheat, Winter, cv Riband); test: Preemergence herbicidal evaluation; format: in vivo, Triticum aestivum; conditions: preemergence, rated 4-5 weeks after treatment
In short: as §3

Cc1ccc(-c2nsc3ccc(N4C(=O)C5=C(CCCC5)C4=O)cc23)s1 [Compound 20, N-[3-(5-methyl-2-thienyl)-1,2-benzisothiazol-5-yl]-1-cyclohexene-1,2-dicarboximide]
herbicidal rating, MOOVA ([1]; rate 0.0320 kg/ha): 9.0 | herbicidal rating, MOOVA ([1]; rate 0.1250 kg/ha): 9.0 | Postemergence herbicidal rating, ZEAMX ([2]; rate 0.0320 kg/ha): 5.0 | Postemergence herbicidal rating, ZEAMX ([2]; rate 0.0620 kg/ha): 5.0 | Postemergence herbicidal rating, ZEAMX ([2]; rate 0.1250 kg/ha): 5.5 | ABUTH preemergence herbicidal rating ([3]; Rate 0.0620 kg/ha): 1.0 | ABUTH preemergence herbicidal rating ([3]; Rate 0.1250 kg/ha): 2.0 | ABUTH preemergence herbicidal rating ([3]; Rate 0.2500 kg/ha): 4.0 | Postemergence herbicidal rating, SETVI ([4]; rate 0.0320 kg/ha): 2.0 | Postemergence herbicidal rating, SETVI ([4]; rate 0.0620 kg/ha): 2.0 | Postemergence herbicidal rating, SETVI ([4]; rate 0.1250 kg/ha): 2.0 | Postemergence herbicidal rating, ECHCG ([5]; rate 0.0320 kg/ha): 1.0 | Postemergence herbicidal rating, ECHCG ([5]; rate 0.0620 kg/ha): 1.0 | Postemergence herbicidal rating, ECHCG ([5]; rate 0.1250 kg/ha): 1.0 | ORYSAT preemergence herbicidal rating ([6]; Rate 0.0620 kg/ha): 0.0 | ORYSAT preemergence herbicidal rating ([6]; Rate 0.1250 kg/ha): 0.0 | ORYSAT preemergence herbicidal rating ([6]; Rate 0.2500 kg/ha): 0.0 | herbicidal rating, CYPSE ([7]; rate 0.0320 kg/ha): 4.0 | herbicidal rating, CYPSE ([7]; rate 0.1250 kg/ha): 7.0 | Postemergence herbicidal rating, TRZAWR ([8]; rate 0.0320 kg/ha): 3.5 | Postemergence herbicidal rating, TRZAWR ([8]; rate 0.0620 kg/ha): 4.0 | Postemergence herbicidal rating, TRZAWR ([8]; rate 0.1250 kg/ha): 4.5 | herbicidal rating, ECHORC ([9]; rate 0.0320 kg/ha): 5.0 | herbicidal rating, ECHORC ([9]; rate 0.1250 kg/ha): 7.0 | ECHCG preemergence herbicidal rating ([10]; Rate 0.0620 kg/ha): 0.0 | ECHCG preemergence herbicidal rating ([10]; Rate 0.1250 kg/ha): 0.0 | ECHCG preemergence herbicidal rating ([10]; Rate 0.2500 kg/ha): 0.0 | SETVI preemergence herbicidal rating ([11]; Rate 0.0620 kg/ha): 0.0 | SETVI preemergence herbicidal rating ([11]; Rate 0.1250 kg/ha): 0.0 | SETVI preemergence herbicidal rating ([11]; Rate 0.2500 kg/ha): 0.0 | Postemergence herbicidal rating, GLXMAW ([12]; rate 0.0320 kg/ha): 5.5 | Postemergence herbicidal rating, GLXMAW ([12]; rate 0.0620 kg/ha): 5.5 | Postemergence herbicidal rating, GLXMAW ([12]; rate 0.1250 kg/ha): 5.5 | Postemergence herbicidal rating, IPOHE ([13]; rate 0.0320 kg/ha): 6.0 | Postemergence herbicidal rating, IPOHE ([13]; rate 0.0620 kg/ha): 9.0 | Postemergence herbicidal rating, IPOHE ([13]; rate 0.1250 kg/ha): 9.0 | GALAP preemergence herbicidal rating ([14]; Rate 0.0620 kg/ha): 0.0 | GALAP preemergence herbicidal rating ([14]; Rate 0.1250 kg/ha): 0.0 | GALAP preemergence herbicidal rating ([14]; Rate 0.2500 kg/ha): 3.0 | Postemergence herbicidal rating, ORYSAT ([15]; rate 0.0320 kg/ha): 2.5 | Postemergence herbicidal rating, ORYSAT ([15]; rate 0.0620 kg/ha): 3.0 | Postemergence herbicidal rating, ORYSAT ([15]; rate 0.1250 kg/ha): 4.5 | AMBEL preemergence herbicidal rating ([16]; Rate 0.0620 kg/ha): 0.0 | AMBEL preemergence herbicidal rating ([16]; Rate 0.1250 kg/ha): 1.0 | AMBEL preemergence herbicidal rating ([16]; Rate 0.2500 kg/ha): 2.0 | CHEAL preemergence herbicidal rating ([17]; Rate 0.0620 kg/ha): 0.0 | CHEAL preemergence herbicidal rating ([17]; Rate 0.1250 kg/ha): 2.0 | CHEAL preemergence herbicidal rating ([17]; Rate 0.2500 kg/ha): 3.0 | CASOB preemergence herbicidal rating ([18]; Rate 0.0620 kg/ha): 0.0 | CASOB preemergence herbicidal rating ([18]; Rate 0.1250 kg/ha): 0.0 | CASOB preemergence herbicidal rating ([18]; Rate 0.2500 kg/ha): 2.0 | TRZAWR preemergence herbicidal rating ([19]; Rate 0.0620 kg/ha): 0.0 | TRZAWR preemergence herbicidal rating ([19]; Rate 0.1250 kg/ha): 0.0 | TRZAWR preemergence herbicidal rating ([19]; Rate 0.2500 kg/ha): 0.0

Cc1ccc(-c2nsc3ccc(-n4c(=O)cc(C(F)(F)F)n(C)c4=O)cc23)s1 [Compound 21, 1-methyl-3-[3-(5-methyl-2-thienyl)-1,2-benzisothiazol-5-yl]-6-(trifluoromethyl)uracil]
herbicidal rating, MOOVA ([1]; rate 0.0080 kg/ha): 7.0 | herbicidal rating, MOOVA ([1]; rate 0.0320 kg/ha): 9.0 | herbicidal rating, MOOVA ([1]; rate 0.1250 kg/ha): 9.0 | Postemergence herbicidal rating, ZEAMX ([2]; rate 0.0320 kg/ha): 5.0 | Postemergence herbicidal rating, ZEAMX ([2]; rate 0.0620 kg/ha): 5.5 | Postemergence herbicidal rating, ZEAMX ([2]; rate 0.1250 kg/ha): 5.5 | ABUTH preemergence herbicidal rating ([3]; Rate 0.0620 kg/ha): 4.0 | ABUTH preemergence herbicidal rating ([3]; Rate 0.1250 kg/ha): 7.5 | ABUTH preemergence herbicidal rating ([3]; Rate 0.2500 kg/ha): 9.0 | Postemergence herbicidal rating, SETVI ([4]; rate 0.0320 kg/ha): 2.0 | Postemergence herbicidal rating, SETVI ([4]; rate 0.0620 kg/ha): 7.0 | Postemergence herbicidal rating, SETVI ([4]; rate 0.1250 kg/ha): 9.0 | Postemergence herbicidal rating, ECHCG ([5]; rate 0.0320 kg/ha): 4.0 | Postemergence herbicidal rating, ECHCG ([5]; rate 0.0620 kg/ha): 4.0 | Postemergence herbicidal rating, ECHCG ([5]; rate 0.1250 kg/ha): 4.0 | ORYSAT preemergence herbicidal rating ([6]; Rate 0.0620 kg/ha): 0.0 | ORYSAT preemergence herbicidal rating ([6]; Rate 0.1250 kg/ha): 0.5 | ORYSAT preemergence herbicidal rating ([6]; Rate 0.2500 kg/ha): 3.5 | herbicidal rating, CYPSE ([7]; rate 0.0080 kg/ha): 0.0 | herbicidal rating, CYPSE ([7]; rate 0.0320 kg/ha): 4.5 | herbicidal rating, CYPSE ([7]; rate 0.1250 kg/ha): 4.5 | Postemergence herbicidal rating, TRZAWR ([8]; rate 0.0320 kg/ha): 4.0 | Postemergence herbicidal rating, TRZAWR ([8]; rate 0.0620 kg/ha): 4.5 | Postemergence herbicidal rating, TRZAWR ([8]; rate 0.1250 kg/ha): 4.5 | herbicidal rating, ECHORC ([9]; rate 0.0080 kg/ha): 4.0 | herbicidal rating, ECHORC ([9]; rate 0.0320 kg/ha): 8.5 | herbicidal rating, ECHORC ([9]; rate 0.1250 kg/ha): 9.0 | ECHCG preemergence herbicidal rating ([10]; Rate 0.0620 kg/ha): 0.0 | ECHCG preemergence herbicidal rating ([10]; Rate 0.1250 kg/ha): 5.0 | ECHCG preemergence herbicidal rating ([10]; Rate 0.2500 kg/ha): 6.5 | SETVI preemergence herbicidal rating ([11]; Rate 0.0620 kg/ha): 6.5 | SETVI preemergence herbicidal rating ([11]; Rate 0.1250 kg/ha): 9.0 | SETVI preemergence herbicidal rating ([11]; Rate 0.2500 kg/ha): 9.0 | Postemergence herbicidal rating, GLXMAW ([12]; rate 0.0320 kg/ha): 5.5 | Postemergence herbicidal rating, GLXMAW ([12]; rate 0.0620 kg/ha): 6.0 | Postemergence herbicidal rating, GLXMAW ([12]; rate 0.1250 kg/ha): 6.0 | Postemergence herbicidal rating, IPOHE ([13]; rate 0.0320 kg/ha): 9.0 | Postemergence herbicidal rating, IPOHE ([13]; rate 0.0620 kg/ha): 9.0 | Postemergence herbicidal rating, IPOHE ([13]; rate 0.1250 kg/ha): 9.0 | GALAP preemergence herbicidal rating ([14]; Rate 0.0620 kg/ha): 3.0 | GALAP preemergence herbicidal rating ([14]; Rate 0.1250 kg/ha): 2.0 | GALAP preemergence herbicidal rating ([14]; Rate 0.2500 kg/ha): 9.0 | Postemergence herbicidal rating, ORYSAT ([15]; rate 0.0320 kg/ha): 4.0 | Postemergence herbicidal rating, ORYSAT ([15]; rate 0.0620 kg/ha): 3.5 | Postemergence herbicidal rating, ORYSAT ([15]; rate 0.1250 kg/ha): 4.5 | AMBEL preemergence herbicidal rating ([16]; Rate 0.0620 kg/ha): 2.0 | AMBEL preemergence herbicidal rating ([16]; Rate 0.1250 kg/ha): 5.5 | AMBEL preemergence herbicidal rating ([16]; Rate 0.2500 kg/ha): 7.5 | CHEAL preemergence herbicidal rating ([17]; Rate 0.0620 kg/ha): 9.0 | CHEAL preemergence herbicidal rating ([17]; Rate 0.1250 kg/ha): 9.0 | CHEAL preemergence herbicidal rating ([17]; Rate 0.2500 kg/ha): 9.0 | CASOB preemergence herbicidal rating ([18]; Rate 0.0620 kg/ha): 0.0 | CASOB preemergence herbicidal rating ([18]; Rate 0.1250 kg/ha): 0.5 | CASOB preemergence herbicidal rating ([18]; Rate 0.2500 kg/ha): 2.0 | TRZAWR preemergence herbicidal rating ([19]; Rate 0.0620 kg/ha): 0.0 | TRZAWR preemergence herbicidal rating ([19]; Rate 0.1250 kg/ha): 1.0 | TRZAWR preemergence herbicidal rating ([19]; Rate 0.2500 kg/ha): 2.0

— patent US6706663B2, “Herbicidal 3-heterocyclic substituted benzisothiazole and benzisoxazole compounds” (Wyeth, priority 2000, dated 2004)
